According to PubChem BioAssay AID2060615 (Molecular Pharmacology Branch, DTP, NCI, 2025):

System: 496974-208-R-J2-PDC complex spheroids, growth % test/control
Assay: Anticancer human tumor 496974-208-R-J2-PDC patient-derived pancreatic carcinoma cell line growth inhibition [CLK]
Conditions: for IC50: curve of first compound; for viability, T/C: stronger effect = lower value
Text: A high-throughput screen of multi-cell type tumor spheroids was designed to identify active combinations of […] and targeted small molecules. Complex spheroids include a stromal component modeled by human endothelial cells (HUVEC) and fibroblasts modeled by human mesenchymal stem cells (MSCs). The concentration ranges selected for each drug and investigational agent were based upon clinically achievable concentrations if the clinical Cmax of the agent was known.
Compounds. The drugs and investigational agents: cirtuvivint (SM08502; NSC835563), CC-671 (NSC850746), vemurafenib (NSC761431), tapotoclax (NSC804041), sotorasib (NSC818433), adagrasib (NSC831453), MRTX-1133 (NSC836407), BAY2416964 (NSC825713), copanlisib (NSC816437), inavolisib (NSC800729), abemaciclib (NSC768073), osimertinib (NSC779217), entinostat (NSC756642), eltanexor (KPT-8602, NSC794443), venetoclax (NSC766270), ceralasertib (NSC777638), bortezomib (NSC756655), olaparib (NSC753686), talazoparib (NSC767125), alisertib (NSC759677), peposertib (NSC802822), gemcitabine (NSC613327), 5-fluorouracil (NSC19893), SN-38 (NSC673596), oxaliplatin (NSC266046), paclitaxel (NSC125973), and doxorubicin (NSC123127), were obtained from the National Cancer Institute (NCI) Developmental Therapeutics Program Chemical Repository. The FDA-approved anticancer drug set is available from the Developmental Therapeutics Program at https://dtp.cancer.gov/organization/dscb/obtaining/available plates.htm. […] The stock solutions were prepared in dimethyl sulfoxide (DMSO, Sigma-Aldrich, St. Louis, MO, cat. D2650), except for the platinum complexes which were prepared in saline (Quality Biological, Gaithersburg, MD, cat. 114-055-101), at 800-fold the tested concentration and stored at -70 degrees C prior to their use. All drugs and investigational agents were tested over a range starting from a high concentration at or near the clinical Cmax and decreasing in half-log increments. If the clinical Cmax for an agent had not been determined, the highest concentration tested was 10 microM.
Cell Culture. All cells were maintained in an incubator at 37 degrees C and 5% CO2 with 95% humidity. The PDC lines were cultured according to standard operating procedures established by the NCI PDMR. Briefly, all PDCs were thawed and cultured in Matrigel-coated flasks prepared with a working solution of 1X Ham's F-12 nutrient mix, without supplementation (Invitrogen, Waltham, MA, cat. 11765054), 100 U/mL penicillin-streptomycin (Invitrogen, cat. 15140122), and 2.5% Matrigel (Corning Inc., Corning, NY, cat. 354248) for the first three passages. The 947758-054-R-J2-PDC line was cultured in 6B/Colon 1A media, which includes advanced DMEM/F-12 (Thermo Fisher Scientific, cat. 12634028), 10 mM HEPES (Thermo Fisher Scientific, cat. 15630080), 1X GlutaMAX supplement (Thermo Fisher Scientific, cat. 35050061), 0.1 mg/mL primocin (InvivoGen, cat. ant-pm-2), 10% defined fetal bovine serum, heat inactivated (HyClone Laboratories Inc., cat. SH30070.03HI), 1.25 mM N-Acetyl-L-cysteine (Sigma-Aldrich, cat. A9165), 10 mM nicotinamide (Sigma-Aldrich, cat. N0636), 1X B-27 supplement (Thermo Fisher Scientific, cat. 17504044), 1X N-2 supplement (Thermo Fisher Scientific, cat. 17502048), and 10 microM Y-27632 dihydrochloride (Tocris Bioscience, cat. 1254). The 876862-298-R-J1-PDC was cultured in 6E media, which includes all 6B/Colon 1A media components plus 50% L-WRN conditioned media (ATCC, cat. CRL-3276), 50 ng/mL recombinant human EGF recombinant protein (hEGF; Thermo Fisher Scientific, cat. PHG0311), 10 ng/mL recombinant human fibroblast growth factor 10 (hGFG-10; PeproTech, cat. 100-26), 1 ng/mL recombinant human fibroblast growth factor 2 (hFGF-2; PeproTech, cat. 100-18B), and 1 µM prostaglandin E2 (PGE2; Tocris, cat. 2296). The 227483-062-R1-J1-PDC line was cultured in Panc media, containing all 6E components except hFGF-2, with the addition of 500 nM SB-431542 (Selleckchem, cat. S1067) and 10 nM gastrin (Tocris, cat. 3006). […]

[1] = second compound 0.0316 µM, first compound 0.0316 µM
[2] = second compound 0.0316 µM, first compound 0.1 µM
[3] = second compound 0.0316 µM, first compound 0.316 µM
[4] = second compound 0.0316 µM, first compound 1 µM
[5] = second compound 0.0316 µM, first compound 3.16 µM
[6] = second compound 0.0316 µM, first compound 10 µM
[7] = second compound 0.1 µM, first compound 0.0316 µM
[8] = second compound 0.1 µM, first compound 0.1 µM
[9] = second compound 0.1 µM, first compound 0.316 µM
[10] = second compound 0.1 µM, first compound 1 µM
[11] = second compound 0.1 µM, first compound 3.16 µM
[12] = second compound 0.1 µM, first compound 10 µM
[13] = second compound 0.316 µM, first compound 0.0316 µM
[14] = second compound 0.316 µM, first compound 0.1 µM
[15] = second compound 0.316 µM, first compound 0.316 µM
[16] = second compound 0.316 µM, first compound 1 µM
[17] = second compound 0.316 µM, first compound 3.16 µM
[18] = second compound 0.316 µM, first compound 10 µM
[19] = second compound 1 µM, first compound 0.0316 µM
[20] = second compound 1 µM, first compound 0.1 µM
[21] = second compound 1 µM, first compound 0.316 µM
[22] = second compound 1 µM, first compound 1 µM
[23] = second compound 1 µM, first compound 3.16 µM
[24] = second compound 1 µM, first compound 10 µM
[25] = second compound 3.16 µM, first compound 0.0316 µM
[26] = second compound 3.16 µM, first compound 0.1 µM
[27] = second compound 3.16 µM, first compound 0.316 µM
[28] = second compound 3.16 µM, first compound 1 µM
[29] = second compound 3.16 µM, first compound 3.16 µM
[30] = second compound 3.16 µM, first compound 10 µM
[31] = second compound 10 µM, first compound 0.0316 µM
[32] = second compound 10 µM, first compound 0.1 µM
[33] = second compound 10 µM, first compound 0.316 µM
[34] = second compound 10 µM, first compound 1 µM
[35] = second compound 10 µM, first compound 3.16 µM
[36] = second compound 10 µM, first compound 10 µM
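Further: spheroids exposed to the drugs for 7 days before readout.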
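Wherever viability, T/C is given: 100% = DMSO vehicle control wells.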

Structure (SMILES): CCCS(=O)(=O)Nc1ccc(F)c(C(=O)c2c[nH]c3ncc(-c4ccc(Cl)cc4)cc23)c1F + CN1CCN(c2cc(C(=O)Nc3cc4cc(-c5cnn(C)c5)ccc4cn3)ccn2)CC1
- IC50 (second compound 0.0316 µM): 8.72 µM
- IC50 (second compound 0.1 µM): 8.61 µM
- IC50 (second compound 0.316 µM): < 0.0316 µM
- IC50 (second compound 1 µM): < 0.0316 µM
- IC50 (second compound 3.16 µM): < 0.0316 µM
- IC50 (second compound 10 µM): < 0.0316 µM
- viability, T/C [1]: 100%
- viability, T/C [2]: 101%
- viability, T/C [3]: 104%
- viability, T/C [4]: 112%
- viability, T/C [5]: 103%
- viability, T/C [6]: 42.9%
- viability, T/C [7]: 79.8%
- viability, T/C [8]: 92.3%
- viability, T/C [9]: 95.8%
- viability, T/C [10]: 95.3%
- viability, T/C [11]: 82.8%
- viability, T/C [12]: 44.8%
- viability, T/C [13]: 7.31%
- viability, T/C [14]: 7.89%
- viability, T/C [15]: 8.26%
- viability, T/C [16]: 12.3%
- viability, T/C [17]: 13.7%
- viability, T/C [18]: 12.7%
- viability, T/C [19]: 0.4%
- viability, T/C [20]: 1.65%
- viability, T/C [21]: 0.49%
- viability, T/C [22]: 0.54%
- viability, T/C [23]: 0.67%
- viability, T/C [24]: 1.12%
- viability, T/C [25]: 0.36%
- viability, T/C [26]: 0.59%
- viability, T/C [27]: 1.11%
- viability, T/C [28]: 0.45%
- viability, T/C [29]: 1.82%
- viability, T/C [30]: 1.33%
- viability, T/C [31]: 0.23%
- viability, T/C [32]: 0.7%
- viability, T/C [33]: 0.31%
- viability, T/C [34]: 1.08%
- viability, T/C [35]: 1.52%
- viability, T/C [36]: 0.99%

Structure (SMILES): COC1C=CCC(C)C(C)S(=O)(=O)NC(=O)c2ccc3c(c2)N(CC2CCC21)CC1(CCCc2cc(Cl)ccc21)CO3 (centres undefined) + CN1CCN(c2cc(C(=O)Nc3cc4cc(-c5cnn(C)c5)ccc4cn3)ccn2)CC1
- IC50 (second compound 0.0316 µM): 9.9 µM
- IC50 (second compound 0.1 µM): 6.73 µM
- IC50 (second compound 0.316 µM): < 0.0316 µM
- IC50 (second compound 1 µM): < 0.0316 µM
- IC50 (second compound 3.16 µM): < 0.0316 µM
- IC50 (second compound 10 µM): < 0.0316 µM
- viability, T/C [1]: 93.4%
- viability, T/C [2]: 87.3%
- viability, T/C [3]: 86.7%
- viability, T/C [4]: 76.2%
- viability, T/C [5]: 76.1%
- viability, T/C [6]: 48.3%
- viability, T/C [7]: 79.9%
- viability, T/C [8]: 78.4%
- viability, T/C [9]: 75.4%
- viability, T/C [10]: 69.1%
- viability, T/C [11]: 66.3%
- viability, T/C [12]: 42%
- viability, T/C [13]: 6.55%
- viability, T/C [14]: 6.86%
- viability, T/C [15]: 6.27%
- viability, T/C [16]: 5.01%
- viability, T/C [17]: 6.46%
- viability, T/C [18]: 9.02%
- viability, T/C [19]: 0.46%
- viability, T/C [20]: 2.1%
- viability, T/C [21]: 1.64%
- viability, T/C [22]: 0.36%
- viability, T/C [23]: 0.6%
- viability, T/C [24]: 2.57%
- viability, T/C [25]: 0.56%
- viability, T/C [26]: 1.19%
- viability, T/C [27]: 0.48%
- viability, T/C [28]: 0.35%
- viability, T/C [29]: 3.56%
- viability, T/C [30]: 1.06%
- viability, T/C [31]: 1.5%
- viability, T/C [32]: 0.48%
- viability, T/C [33]: 0.41%
- viability, T/C [34]: 0.29%
- viability, T/C [35]: 3.22%
- viability, T/C [36]: 0.75%
